Patent US12697402B2, “Detection of colonic neoplasia in vivo using near-infrared peptide targeted against overexpressed cMet” (THE REGENTS OF THE UNIVERSITY OF MICHIGAN, priority 2019, dated 2026)
Entries after “also recorded” stand apart in the source; their conditions may differ. Peptide text beside a SMILES is read from it. * marks the point of attachment. X1 = CN1/C(=C/C=C/C=C/C2=[N+](CCCCCC(=O)*)c3ccc4ccccc4c3C2(C)C)C(C)(C)c2c1ccc1ccccc21

How the values were obtained:
cMet (HT29 cells) = cMet (HT29 cells) (Homo sapiens, UniProt P08581); experiment: biochemical
Chain of cMet (HT29 cells) (P08581 25-1390): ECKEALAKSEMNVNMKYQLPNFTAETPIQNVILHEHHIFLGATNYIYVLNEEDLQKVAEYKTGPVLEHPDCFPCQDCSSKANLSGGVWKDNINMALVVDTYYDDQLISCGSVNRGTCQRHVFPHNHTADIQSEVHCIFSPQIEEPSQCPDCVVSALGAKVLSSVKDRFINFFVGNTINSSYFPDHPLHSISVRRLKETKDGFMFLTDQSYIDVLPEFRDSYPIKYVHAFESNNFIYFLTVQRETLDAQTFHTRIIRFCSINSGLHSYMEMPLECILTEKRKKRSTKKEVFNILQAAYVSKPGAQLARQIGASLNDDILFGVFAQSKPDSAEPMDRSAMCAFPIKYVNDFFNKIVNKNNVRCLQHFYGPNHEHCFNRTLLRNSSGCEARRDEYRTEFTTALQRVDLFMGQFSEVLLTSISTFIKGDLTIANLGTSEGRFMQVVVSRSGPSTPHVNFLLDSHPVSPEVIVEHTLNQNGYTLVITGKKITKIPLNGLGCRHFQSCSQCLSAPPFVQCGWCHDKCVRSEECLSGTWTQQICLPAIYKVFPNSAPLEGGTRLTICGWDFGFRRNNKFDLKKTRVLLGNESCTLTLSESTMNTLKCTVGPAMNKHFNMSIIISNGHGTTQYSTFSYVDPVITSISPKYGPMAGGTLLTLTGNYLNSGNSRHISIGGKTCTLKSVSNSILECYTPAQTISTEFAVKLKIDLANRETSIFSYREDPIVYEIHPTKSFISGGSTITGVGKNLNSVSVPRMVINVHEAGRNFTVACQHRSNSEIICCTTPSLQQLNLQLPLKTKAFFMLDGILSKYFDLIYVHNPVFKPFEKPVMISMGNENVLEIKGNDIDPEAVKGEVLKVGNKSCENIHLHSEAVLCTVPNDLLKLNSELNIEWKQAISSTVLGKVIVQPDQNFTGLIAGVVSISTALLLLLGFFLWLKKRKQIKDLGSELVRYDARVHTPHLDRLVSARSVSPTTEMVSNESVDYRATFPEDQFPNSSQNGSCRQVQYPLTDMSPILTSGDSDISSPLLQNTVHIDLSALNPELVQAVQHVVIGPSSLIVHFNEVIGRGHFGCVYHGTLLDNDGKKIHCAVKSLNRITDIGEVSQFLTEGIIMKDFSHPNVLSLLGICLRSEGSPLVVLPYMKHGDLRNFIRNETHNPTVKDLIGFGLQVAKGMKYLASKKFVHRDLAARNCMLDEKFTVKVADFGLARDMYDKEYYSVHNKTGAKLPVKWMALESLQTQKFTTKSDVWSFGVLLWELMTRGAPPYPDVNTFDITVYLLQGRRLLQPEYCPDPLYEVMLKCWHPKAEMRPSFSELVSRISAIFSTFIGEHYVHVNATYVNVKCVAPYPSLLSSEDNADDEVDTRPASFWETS
Protocol: Cells then were washed 3 times with 1×PBS containing 0.5% BSA to remove unbound peptides before analysis with flow cytometry (FACS Canto; BD Biosciences, San Jose, CA). Sample means were used to calculate the equilibrium dissociation constant KD using nonlinear regression analysis with Origin 6.1 data analysis software (OriginLab, Northampton, MA). KD=1/KA was calculated by performing a least-squares fit of the data to the nonlinear equation I[X]=(I0+Imaxka[X])/(I0+ka[X]). I0 and Imax are the initial and maximum fluorescence intensities, corresponding to no peptide and peptide saturation, respectively, and [X] represents the concentration of the bound peptide.^34

CCD841 cells = experiment: Alamar blue assay, CCD841; assay type: cell-based, human; details: normal colon cells; 48 hours; HGF 25 ng/mL; peptide 5 or 100 μM
Protocol: (§1) An alamar blue assay was performed using HT29 and CCD841 cells. After culturing in serum free media overnight, about 3×10^3 cells were seeded per well in serum free media in 96 well plates at a final volume of 100 μL per well. […] Alamar blue reagent (10 μL) was added in amounts equal to 10% of the volume in the well, and incubated at 37° C. for 4 hours. Fluorescence with excitation at λex=530-560 nm, and emission at λex=590 nm, was measured.

HT29 cells = experiment: Alamar blue assay, HT29; assay type: cell-based, human; details: 48 hours; HGF 25 ng/mL; peptide 5 or 100 μM
Protocol: as §1

[1] = system: phosphorylation of cMet, AKT and ERK1/2; experiment: Effect of peptide on cell signaling (Western blot); assay type: cell-based, human; details: HT29 cells; 10, 30, 120 min; HGF 25 ng/mL; peptide 5 or 100 μM
Protocol: HT29 cells were treated with serum-free medium overnight for starvation before incubation with hHGF (hHGF, 294-HG-005, R&D) or peptides. Recombinant Human HGF Protein was added to HT29 cells at concentrations of 25 ng/ml for 10, 30, or 120 min in separate wells. QQT*-Cy5.5 and TLQ*-Cy5.5 were added at concentrations of 5 or 100 μM for 10, 30, and 120 min. Peptides were added at concentrations of 5 and 100 μM for 10, 30, or 120 min. Cells were then washed with 1×PBS and lysed with Pierce RIPA buffer containing Halt Phosphatase Inhibitor Cocktail (Thermo Fisher) and Halt Protease Inhibitor Cocktail (Thermo Fisher). Protein contents were quantified by Bicinchoninic Acid Assay (BCA). Anti-cMet antibody (Cell Signaling, #8198), phospho-cMet (Tyr1234/1235) antibody (Cell Signaling, #3077), anti-AKT antibody (Cell Signaling, #4691), anti-phospho-AKT antibody (Cell Signaling, #9271), anti-ERK1/2 antibody (Abcam, #ab17942), anti-phospho-ERK1/2 antibody (Abcam, #ab50011), and anti-tubulin antibody (Invitrogen, #32-2600) were used per manufacturer's instructions.

Molecule: CC(C)C[C@H](NC(=O)[C@H](CO)NC(=O)[C@H](Cc1c[nH]c2ccccc12)NC(=O)[C@H](CC(N)=O)NC(=O)[C@@H](NC(=O)[C@H](CCC(N)=O)NC(=O)[C@@H](N)CCC(N)=O)[C@@H](C)O)C(=O)NCC(=O)NCC(=O)NCC(=O)N[C@@H](CO)C(=O)N[C@@H](CCCCNC(=O)CCCCC[N+]1=C(/C=C/C=C/C=C2/N(C)c3ccc4ccccc4c3C2(C)C)C(C)(C)c2c1ccc1ccccc21)C(N)=O [QQT*-Cy5.5] (H-QQTNWSLGGGSK(X1)-NH2)
- Kd (cMet (HT29 cells)): 57 nM
- growth of CCD841 cells (CCD841 cells): no effect on growth; also recorded: No change

Molecule: HGF: recombinant human hepatocyte growth factor, known ligand for cMet, positive control
- growth of HT29 cells (HT29 cells): increased growth
- phosphorylation of cMet and downstream AKT and ERK1/2 [1]: strong phosphorylation activity; also recorded: induced phosphorylation
